Experimental data from ChEMBL document CHEMBL3885881, “DrugMatrix”.

Organism: Rattus norvegicus
Assay: DrugMatrix - Regimen: Daily Repeat
Type: toxicity, organism-based, Sprague-Dawley
Design: regimen Daily Repeat, gender Male, age 6-8 weeks
Settings: in vivo, po, route oral GAVAGE, vehicle .5 % CMC; for ABSOLUTE BASOPHIL / ABSOLUTE EOSINOPHIL / ABSOLUTE LYMPHOCYTE / ABSOLUTE MONOCYTE / ABSOLUTE SEGMENTED NEUTROPHIL / BASOPHIL / EOSINOPHIL / ERYTHROCYTE COUNT / HEMATOCRIT / HEMOGLOBIN / LEUKOCYTE COUNT / LYMPHOCYTE / MEAN CORPUSCULAR HEMOGLOBIN / MEAN CORPUSCULAR HEMOGLOBIN CONCENTRATION / MEAN CORPUSCULAR VOLUME / MONOCYTE / NEUTROPHIL / NUCLEATED RED BLOOD CELLS / PLATELET COUNT: tissue Blood; for ALANINE AMINOTRANSFERASE / ALBUMIN / ALKALINE PHOSPHATASE / ASPARTATE AMINOTRANSFERASE / BLOOD UREA NITROGEN / CARBON DIOXIDE / CHLORIDE / CHOLESTEROL / CREATINE PHOSPHOKINASE / CREATININE / GLUCOSE / LACTATE DEHYDROGENASE / LIPASE / PHOSPHORUS / POTASSIUM / SODIUM / TOTAL BILIRUBIN / TOTAL PROTEIN / URIC ACID: tissue Plasma
[1] = 12 mg/kg, 72 h, dose level High, time 3 day
[2] = 12 mg/kg, 120 h, dose level High, time 5 day
[3] = […], 72 h, dose 1.2 mg/Kg, dose level Low, time 3 day
[4] = […], 120 h, dose 1.2 mg/Kg, dose level Low, time 5 day

SMILES: N[C@@H](Cc1ccc(N(CCCl)CCCl)cc1)C(=O)O
- ABSOLUTE BASOPHIL [1]: 0 CELLS/uL
- ABSOLUTE EOSINOPHIL [1]: 202.33 CELLS/uL
- ABSOLUTE LYMPHOCYTE [1]: 10252.33 CELLS/uL
- ABSOLUTE MONOCYTE [1]: 0 CELLS/uL
- ABSOLUTE SEGMENTED NEUTROPHIL [1]: 1345.33 CELLS/uL
- BASOPHIL [1]: 0%
- EOSINOPHIL [1]: 1.67%
- ERYTHROCYTE COUNT [1]: 5.67 x10E6/uL
- HEMATOCRIT [1]: 35.43%
- HEMOGLOBIN [1]: 13.33 G/DL
- LEUKOCYTE COUNT [1]: 11.8 x10E3/uL
- LYMPHOCYTE [1]: 86.67%
- MEAN CORPUSCULAR HEMOGLOBIN [1]: 23.57 pg
- MEAN CORPUSCULAR HEMOGLOBIN CONCENTRATION [1]: 37.63 G/DL
- MEAN CORPUSCULAR VOLUME [1]: 62.57 fL
- MONOCYTE [1]: 0%
- NEUTROPHIL [1]: 11.67%
- NUCLEATED RED BLOOD CELLS [1]: 0 /100WBC
- PLATELET COUNT [1]: 1376 x10E3/uL
- ALANINE AMINOTRANSFERASE [1]: 52 u/L
- ALBUMIN [1]: 4.27 G/DL
- ALKALINE PHOSPHATASE [1]: 346 u/L
- ASPARTATE AMINOTRANSFERASE [1]: 88.33 u/L
- BLOOD UREA NITROGEN [1]: 15 mg/dL
- CARBON DIOXIDE [1]: 25.67 mmol/L
- CHLORIDE [1]: 108.33 MEQ/L
- CHOLESTEROL [1]: 69.67 mg/dL
- CREATINE PHOSPHOKINASE [1]: 205 u/L
- CREATININE [1]: 0.14 mg/dL
- GLUCOSE [1]: 177 mg/dL
- LACTATE DEHYDROGENASE [1]: 85.33 u/L
- LIPASE [1]: 8.33 u/L
- PHOSPHORUS [1]: 14 mg/dL
- POTASSIUM [1]: 6.75 MEQ/L
- SODIUM [1]: 147.33 MEQ/L
- TOTAL BILIRUBIN [1]: 0.17 mg/dL
- TOTAL PROTEIN [1]: 5.9 G/DL
- URIC ACID [1]: 1.93 mg/dL
- ABSOLUTE BASOPHIL [2]: 0 CELLS/uL
- ABSOLUTE EOSINOPHIL [2]: 270.33 CELLS/uL
- ABSOLUTE LYMPHOCYTE [2]: 13398.33 CELLS/uL
- ABSOLUTE MONOCYTE [2]: 0 CELLS/uL
- ABSOLUTE SEGMENTED NEUTROPHIL [2]: 1364.67 CELLS/uL
- BASOPHIL [2]: 0%
- EOSINOPHIL [2]: 1.67%
- ERYTHROCYTE COUNT [2]: 5.64 x10E6/uL
- HEMATOCRIT [2]: 35.4%
- HEMOGLOBIN [2]: 13.53 G/DL
- LEUKOCYTE COUNT [2]: 15.03 x10E3/uL
- LYMPHOCYTE [2]: 89.33%
- MEAN CORPUSCULAR HEMOGLOBIN [2]: 24.03 pg
- MEAN CORPUSCULAR HEMOGLOBIN CONCENTRATION [2]: 38.23 G/DL
- MEAN CORPUSCULAR VOLUME [2]: 62.83 fL
- MONOCYTE [2]: 0%
- NEUTROPHIL [2]: 9%
- NUCLEATED RED BLOOD CELLS [2]: 0 /100WBC
- PLATELET COUNT [2]: 1253 x10E3/uL
- ALANINE AMINOTRANSFERASE [2]: 43.33 u/L
- ALBUMIN [2]: 4.17 G/DL
- ALKALINE PHOSPHATASE [2]: 352 u/L
- ASPARTATE AMINOTRANSFERASE [2]: 75.67 u/L
- BLOOD UREA NITROGEN [2]: 16 mg/dL
- CARBON DIOXIDE [2]: 26.67 mmol/L
- CHLORIDE [2]: 101.67 MEQ/L
- CHOLESTEROL [2]: 68.67 mg/dL
- CREATINE PHOSPHOKINASE [2]: 312.67 u/L
- CREATININE [2]: 0.24 mg/dL
- GLUCOSE [2]: 170.67 mg/dL
- LACTATE DEHYDROGENASE [2]: 98.33 u/L
- LIPASE [2]: 8 u/L
- PHOSPHORUS [2]: 13.23 mg/dL
- POTASSIUM [2]: 6.07 MEQ/L
- SODIUM [2]: 145.27 MEQ/L
- TOTAL BILIRUBIN [2]: 0.2 mg/dL
- TOTAL PROTEIN [2]: 5.97 G/DL
- URIC ACID [2]: 1.5 mg/dL
- ABSOLUTE BASOPHIL [3]: 0 CELLS/uL
- ABSOLUTE EOSINOPHIL [3]: 212 CELLS/uL
- ABSOLUTE LYMPHOCYTE [3]: 11254.33 CELLS/uL
- ABSOLUTE MONOCYTE [3]: 0 CELLS/uL
- ABSOLUTE SEGMENTED NEUTROPHIL [3]: 1000.33 CELLS/uL
- BASOPHIL [3]: 0%
- EOSINOPHIL [3]: 1.67%
- ERYTHROCYTE COUNT [3]: 5.5 x10E6/uL
- HEMATOCRIT [3]: 35.4%
- HEMOGLOBIN [3]: 13.5 G/DL
- LEUKOCYTE COUNT [3]: 12.47 x10E3/uL
- LYMPHOCYTE [3]: 90.33%
- MEAN CORPUSCULAR HEMOGLOBIN [3]: 24.53 pg
- MEAN CORPUSCULAR HEMOGLOBIN CONCENTRATION [3]: 38.13 G/DL
- MEAN CORPUSCULAR VOLUME [3]: 64.3 fL
- MONOCYTE [3]: 0%
- NEUTROPHIL [3]: 8%
- NUCLEATED RED BLOOD CELLS [3]: 0 /100WBC
- PLATELET COUNT [3]: 1333.67 x10E3/uL
- ALANINE AMINOTRANSFERASE [3]: 50 u/L
- ALBUMIN [3]: 4.43 G/DL
- ALKALINE PHOSPHATASE [3]: 430.67 u/L
- ASPARTATE AMINOTRANSFERASE [3]: 84.33 u/L
- BLOOD UREA NITROGEN [3]: 15.67 mg/dL
- CARBON DIOXIDE [3]: 24 mmol/L
- CHLORIDE [3]: 105.67 MEQ/L
- CHOLESTEROL [3]: 66.67 mg/dL
- CREATINE PHOSPHOKINASE [3]: 180.33 u/L
- CREATININE [3]: 0.21 mg/dL
- GLUCOSE [3]: 171.33 mg/dL
- LACTATE DEHYDROGENASE [3]: 164 u/L
- LIPASE [3]: 8.33 u/L
- PHOSPHORUS [3]: 13.1 mg/dL
- POTASSIUM [3]: 6.13 MEQ/L
- SODIUM [3]: 147.47 MEQ/L
- TOTAL BILIRUBIN [3]: 0.2 mg/dL
- TOTAL PROTEIN [3]: 6.33 G/DL
- URIC ACID [3]: 2.23 mg/dL
- ABSOLUTE BASOPHIL [4]: 0 CELLS/uL
- ABSOLUTE EOSINOPHIL [4]: 46.67 CELLS/uL
- ABSOLUTE LYMPHOCYTE [4]: 6013.67 CELLS/uL
- ABSOLUTE MONOCYTE [4]: 20.33 CELLS/uL
- ABSOLUTE SEGMENTED NEUTROPHIL [4]: 619.33 CELLS/uL
- BASOPHIL [4]: 0%
- EOSINOPHIL [4]: 0.67%
- ERYTHROCYTE COUNT [4]: 5.37 x10E6/uL
- HEMATOCRIT [4]: 34.83%
- HEMOGLOBIN [4]: 13.07 G/DL
- LEUKOCYTE COUNT [4]: 6.7 x10E3/uL
- LYMPHOCYTE [4]: 89.67%
- MEAN CORPUSCULAR HEMOGLOBIN [4]: 24.33 pg
- MEAN CORPUSCULAR HEMOGLOBIN CONCENTRATION [4]: 37.53 G/DL
- MEAN CORPUSCULAR VOLUME [4]: 64.87 fL
- MONOCYTE [4]: 0.33%
- NEUTROPHIL [4]: 9.33%
- NUCLEATED RED BLOOD CELLS [4]: 0 /100WBC
- PLATELET COUNT [4]: 1151 x10E3/uL
- ALANINE AMINOTRANSFERASE [4]: 47 u/L
- ALBUMIN [4]: 4.33 G/DL
- ALKALINE PHOSPHATASE [4]: 273.67 u/L
- ASPARTATE AMINOTRANSFERASE [4]: 74.67 u/L
- BLOOD UREA NITROGEN [4]: 14.33 mg/dL
- CARBON DIOXIDE [4]: 29.33 mmol/L
- CHLORIDE [4]: 101.67 MEQ/L
- CHOLESTEROL [4]: 74.67 mg/dL
- CREATINE PHOSPHOKINASE [4]: 206 u/L
- CREATININE [4]: 0.18 mg/dL
- GLUCOSE [4]: 137 mg/dL
- LACTATE DEHYDROGENASE [4]: 89.33 u/L
- LIPASE [4]: 8.67 u/L
- PHOSPHORUS [4]: 11.6 mg/dL
- POTASSIUM [4]: 5.85 MEQ/L
- SODIUM [4]: 147.57 MEQ/L
- TOTAL BILIRUBIN [4]: 0.2 mg/dL
- TOTAL PROTEIN [4]: 6.17 G/DL
- URIC ACID [4]: 0.8 mg/dL
